Series [1] deals with RPChiPS771-derived enterocyte-like cells. The series can be described thus: Real-time PCR of marker genes in hiPSC-derived enterocyte-like cells with or without VD3. It counts as cell-based, human. From the text:
We then used M3-2 for maturation and evaluated the time-dependent expression of marker genes (Figure 4D). […] The expression levels of UDP glucuronosyltransferase 1-1 (UGT1A1) and various isoforms of P450 metabolizing enzymes (CYP2B6, CYP3A4, and CYP3A7) increased in the presence of VD3 compared with the controls without VD3. The expression levels of uptake transporter, SLC15A1, and efflux transporters, ABCB1 and ABCG2, were not affected by VD3.
Cells were fixed in 4% paraformaldehyde (Nacalai Tesque) in PBS, permeabilized with 0.1% Triton X-100 (Nacalai Tesque). The following antibodies were used: anti-CDX2 (1:100, BioGenex, San Ramon, CA, MU392A-UC), anti-VILLIN (1:100, BD Transduction Laboratories, San Diego, 610359), Alexa 568-conjugated, and Alexa 488-conjugated antibodies (1:1000, ThermoFisher).
RNA was extracted from iPS cells using the RNeasy micro-kit or QIAzol (Qiagen, Hilden, Germany) and then treated with DNase (Qiagen). For reverse transcription reactions, 2.5 µg RNA was reverse-transcribed using PrimeScript™ RT Master Mix (Takara Bio). For real-time PCR analysis, the mRNA expression was quantified with either TaqMan Primers and Probe or using SYBR Green on a StepOne Plus (Applied Biosystems, Foster City, CA, USA). β-ACTIN and GAPDH were used as internal controls. Target mRNA levels were expressed as fold-change against human adult small intestine (ASI; ASI=1). Primer details are listed in Supplemental Table S2.
Membrane integrities of human iPSCs derived intestine cells and Caco-2 cells cultured on CVM were measured after the medium change, using a Millicell ERS-2 (Epithelial Volt-Ohm Meter, Millipore).
Transcellular transport assays and measurement of CYP3A metabolite
In Figure 2 and Figure S1, for assessing the transporter activity of P-gp, time-dependent directional (B-to-
For orientation: Real-time PCR tracks product formation cycle by cycle.

The nature of series [2]: Permeability test (Papp) across hiPSC-derived enterocyte-like cell monolayer. It counts as in vitro ADME. The conditions noted are these: human, M3-2 medium, 37°C 2 h, n = 4. As to the method: The unlabeled compounds were analyzed by LC-MS/MS. […]
Permeability measurements
5 was determined as follows: the culture medium for hiPS-derived enterocyte-like cells was replaced with […]
started by replacing the FBS-containing HBSS buffer with substrate +/- inhibitor and incubated at 37°C for 2 h. The unlabeled compounds were analyzed by LC-MS/MS. The LC-MS/MS system consisted of a Waters ACQUITY UPLC (Waters Corporation, Milford, MA, USA) and a Waters Quattro Ultima mass spectrometer (Waters Corporation). The multiple reaction monitoring modes were used to monitor ions.
The detailed conditions for the analyses of the compounds are shown in Supplemental Table S1. The apparent membrane permeability coefficient (Papp) was calculated as follows. Papp ൌ ௗொௗ௧ ൈ ଵ஺஼బ Where dQ/dt is the amount of the compound permeated per unit of time, A is the surface area of insert membrane (0.33 cm2), and C0 is the initial compound concentration in the donor chamber. Differentiated cells showing TEER >30 Ω・cm2 were used. […]
100ൈቀ1െexp൫െα ൈP௔௣௣ ൯ቁ. Where α is the scaling factor. The fitting curve was calculated by nonlinear regression using Phoenix WinNonlin (Ver. 8.1, Certara, L.P.).

For series [3] the following is noted: fraction of oral dose absorbed in humans; ref Amidon et al., 1988; Sjöberg et al., 2013; Skolnik et al., 2010; Sugano et al., 2002; Takenaka et al., 2016; Tavelin et al., 2003; Xiao et al., 2019; cited from earlier work.
In series [4] the target is T1, P-gp (Homo sapiens, UniProt P08183). The note with it: digoxin 1.27 nM, absence of inhibitor.
A further series concerns CYP3A4. The conditions noted are these: in vitro; ref Andrew Williams et al., 2002; cited from earlier work.
The test system of another series is Caco-2 cells. Details: method as in Artursson, 1990. The note with it: ref Artursson, 1990; cited from earlier work.
Series [5] has as its system T2, P-gp.
T2 construct: transport activities of efflux transporters, P-gp and BCRP, in the ChiPS18-derived enterocyte-like cells; endogenous in cells; host or cells: ChiPS18 human iPSC-derived enterocyte-like cells on CVM inserts
In words: Rhodamine 123 permeability assay by fluorescence detection. It counts as in vitro ADME, human. The note with it: human, not told, day 25, M3-2 with VD3 for the last 48 h (condition #8), read-out: rhodamine 123 flux ratio ([B-to-A transport]/[A-to-B transport]).
Text: (§1) Flux ratio = Papp, basolateral to apical/Papp, apical to basolateral

In series [6] the target is T1, P-gp. Described as above. It counts as in vitro ADME. Details: transport activities of efflux transporters, P-gp and BCRP, in the ChiPS18-derived enterocyte-like cells; endogenous in cells; host or cells: ChiPS18 human iPSC-derived enterocyte-like cells on CVM inserts. The conditions noted are these: 10 μM, day 25, absence of Dex (condition #6, 7) or without Dex and DMSO (condition #5).
Text: as §1

Where [7] appears, read: D30 of differentiation, read-out: RPChiPS771 d30 Papp Mean ± SD.
Where [8] appears, read: day 23 of differentiation, read-out: RPChiPS771 d23 Papp Mean ± SD.

Structures are written as SMILES. Where two headings read alike, the source gives them in different places.

Usually Papp stands for a coefficient for how fast a substance crosses the barrier.

T1 sequence (P08183 whole entry): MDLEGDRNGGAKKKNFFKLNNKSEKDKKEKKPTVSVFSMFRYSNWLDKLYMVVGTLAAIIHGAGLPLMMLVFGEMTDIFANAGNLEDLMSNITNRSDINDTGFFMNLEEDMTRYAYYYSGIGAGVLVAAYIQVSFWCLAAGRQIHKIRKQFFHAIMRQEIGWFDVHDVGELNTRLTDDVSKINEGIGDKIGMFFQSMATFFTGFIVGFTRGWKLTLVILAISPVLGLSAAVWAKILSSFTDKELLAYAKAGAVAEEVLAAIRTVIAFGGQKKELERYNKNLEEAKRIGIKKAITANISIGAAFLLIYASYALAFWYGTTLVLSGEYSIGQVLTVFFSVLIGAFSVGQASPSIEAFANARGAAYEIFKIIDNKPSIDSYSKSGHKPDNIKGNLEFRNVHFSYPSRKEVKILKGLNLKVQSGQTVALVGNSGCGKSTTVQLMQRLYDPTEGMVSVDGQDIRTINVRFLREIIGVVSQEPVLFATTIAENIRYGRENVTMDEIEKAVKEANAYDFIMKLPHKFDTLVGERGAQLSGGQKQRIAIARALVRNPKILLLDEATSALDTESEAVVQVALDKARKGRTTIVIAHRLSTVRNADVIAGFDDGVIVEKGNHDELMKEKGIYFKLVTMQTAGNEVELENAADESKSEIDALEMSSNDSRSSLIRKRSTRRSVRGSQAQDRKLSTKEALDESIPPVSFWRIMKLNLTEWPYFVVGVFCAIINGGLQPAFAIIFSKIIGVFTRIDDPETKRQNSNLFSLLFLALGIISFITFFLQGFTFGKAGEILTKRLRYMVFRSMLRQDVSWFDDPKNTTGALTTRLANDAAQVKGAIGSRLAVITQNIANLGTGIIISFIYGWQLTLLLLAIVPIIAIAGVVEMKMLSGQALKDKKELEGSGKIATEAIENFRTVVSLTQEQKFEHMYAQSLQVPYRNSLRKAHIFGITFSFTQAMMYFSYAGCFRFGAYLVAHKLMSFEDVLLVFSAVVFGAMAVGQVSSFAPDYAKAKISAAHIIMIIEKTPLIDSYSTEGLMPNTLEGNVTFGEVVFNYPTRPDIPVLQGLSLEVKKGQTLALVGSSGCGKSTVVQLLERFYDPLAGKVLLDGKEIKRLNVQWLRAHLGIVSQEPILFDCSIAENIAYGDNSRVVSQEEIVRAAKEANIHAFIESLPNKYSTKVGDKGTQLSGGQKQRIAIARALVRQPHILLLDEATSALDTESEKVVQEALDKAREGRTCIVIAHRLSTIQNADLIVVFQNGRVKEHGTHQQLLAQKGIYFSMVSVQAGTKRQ

`C=C1/C(=C\C=C2/CCC[C@]3(C)[C@@H]([C@H](C)CCCC(C)(C)O)CC[C@@H]23)C[C@@H](O)C[C@@H]1O` [VD3, 1α,25-dihydroxyvitamin D3]: the “expression level of ALPI” value in series [1] (presence of VD3, M3-2) is “upregulated”. In addition, the “expression levels of UGT1A1, CYP2B6, CYP3A4 and CYP3A7” value in series [1] (presence of VD3 compared with controls without VD3, M3-2) is reported as “increased”. Further, the “expression levels of SLC15A1, ABCB1 and ABCG2” value in series [1] (presence of VD3 vs without, M3-2) is on record as “not affected”.

As to `Nc1nc2c(ncn2COCCO)c(=O)[nH]1` [acyclovir], the values for the Papp at 2 h in series [2] (setting [7]) and in series [2] (setting [8]) were 10 ± 6.34 ×10⁻⁶ cm/s and 3.62 ± 0.73 ×10⁻⁶ cm/s, respectively.

Turning to `Cc1cc(=O)n(-c2ccccc2)n1C` [antipyrine], the results for the Papp at 2 h in series [2] (setting [7]) and in series [2] (setting [8]) were 41.9 ± 2.2 ×10⁻⁶ cm/s and 48.4 ± 1.7 ×10⁻⁶ cm/s, respectively. In addition, the “Human Fa” value in series [3] was 97%.

As to `O=C(O)Cc1ccccc1Nc1c(Cl)cccc1Cl` [diclofenac], the Papp at 2 h in series [2] (setting [7]) came out at 12 ± 1.2 ×10⁻⁶ cm/s; in series [2] (setting [8]) it was 17.4 ± 0.6 ×10⁻⁶ cm/s.

Consider `C[C@H]1O[C@@H](O[C@H]2[C@@H](O)C[C@H](O[C@H]3[C@@H](O)C[C@H](O[C@H]4CC[C@@]5(C)[C@H](CC[C@@H]6[C@@H]5C[C@@H](O)[C@]5(C)[C@@H](C7=CC(=O)OC7)CC[C@]65O)C4)O[C@@H]3C)O[C@@H]2C)C[C@H](O)[C@@H]1O` [digoxin], for which the Papp at 2 h came out at 5.18 ± 0.7 ×10⁻⁶ cm/s in series [2] (setting [7]) and 6.15 ± 0.94 ×10⁻⁶ cm/s in series [2] (setting [8]). Besides, the “directional transport (B-to-A vs A-to-B)” value at P-gp [4] was “Basal-to-apical (B-to-A) transport exceeded apical-to-basal (A-to-B) transport”.

Consider `NC(N)=Nc1nc(CSCCC(N)=NS(N)(=O)=O)cs1` [famotidine], for which the Papp at 2 h in series [2] (setting [7]) was determined as 7.42 ± 3.36 ×10⁻⁶ cm/s; in series [2] (setting [8]) it was 5.05 ± 1.76 ×10⁻⁶ cm/s. In addition, the “Human Fa” value in series [3] is listed as 38%.

On to `NS(=O)(=O)c1cc2c(cc1Cl)NCNS2(=O)=O` [hydrochlorothiazide], for which the apparent permeability (Papp) at 2 h came out at 9.5 ± 4.92 ×10⁻⁶ cm/s in series [2] (setting [7]) and 2.1 ± 1.12 ×10⁻⁶ cm/s in series [2] (setting [8]).

As for `COCCc1ccc(OCC(O)CNC(C)C)cc1` (centres unmarked) [metoprolol], the Papp at 2 h came to 25.1 ± 4.8 ×10⁻⁶ cm/s in series [2] (setting [7]) and 22.6 ± 1.3 ×10⁻⁶ cm/s in series [2] (setting [8]).

Consider `Cc1ncc2n1-c1ccc(Cl)cc1C(c1ccccc1F)=NC2` [midazolam], for which the “formation of 1′-OH midazolam by CYP3A4 compared to CYP3A7” value in the series on CYP3A4 is recorded as more than 600 fold.

As to `CC(C)(C)NCC(O)COc1cccc2c1CC(O)C(O)C2` (centres unmarked) [nadolol], the Papp at 2 h in series [2] (setting [7]) worked out at 8.96 ± 9.29 ×10⁻⁶ cm/s; in series [2] (setting [8]), 2.83 ± 1.5 ×10⁻⁶ cm/s. Also, the “Human Fa” value in series [3] is given as 33%.

Consider `CC(C)NCC(O)COc1cccc2ccccc12` (centres unmarked) [propranolol], for which the values for the Papp at 2 h in series [2] (setting [7]) and in series [2] (setting [8]) were 29.3 ± 2.5 ×10⁻⁶ cm/s and 26 ± 2.7 ×10⁻⁶ cm/s, respectively. Further, the passive permeability in the series with Caco-2 cells was 41.9 ×10⁻⁶ cm/s.

In the case of `CNC(=C[N+](=O)[O-])NCCSCc1ccc(CN(C)C)o1` [ranitidine], the values for the Papp at 2 h in series [2] (setting [7]) and in series [2] (setting [8]) were 8.3 ± 6.06 ×10⁻⁶ cm/s and 3.94 ± 0.7 ×10⁻⁶ cm/s, respectively. The “Human Fa” value in series [3] was 50%.

Turning to `COC(=O)c1ccccc1-c1c2ccc(=N)cc-2oc2cc(N)ccc12` [rhodamine 123], in the series with P-gp [5], the efflux ratio at 10 μM was less than 2. Moreover, the “rhodamine 123 flux ratio ([B-to-A transport]/[A-to-B transport])” value on P-gp [6] is recorded as “low”.

Consider `O=C(O)c1cc(/N=N/c2ccc(S(=O)(=O)Nc3ccccn3)cc2)ccc1O` [sulfasalazine], for which the values for the Papp at 2 h in series [2] (setting [7]) and in series [2] (setting [8]) were 2.65 ± 1.01 ×10⁻⁶ cm/s and 1.02 ± 0.4 ×10⁻⁶ cm/s, respectively. In series [3], the “Human Fa” value is on record as 13%.

With `CCN1CCCC1CNC(=O)c1cc(S(N)(=O)=O)ccc1OC` (centres unmarked) [sulpiride], the figures for the Papp at 2 h in series [2] (setting [7]) and in series [2] (setting [8]) were 8.39 ± 4.96 ×10⁻⁶ cm/s and 3.15 ± 1.18 ×10⁻⁶ cm/s, respectively.

Consider `C[C@]12CC[C@H]3[C@@H](CCC4=CC(=O)CC[C@@]43C)[C@@H]1CC[C@@H]2O` [testosterone], for which, in series [3], the “Human Fa” value is given as 100%.
